From US20120094998A1, “Oligomer-Protein Tyrosine Kinase Inhibitor Conjugates” (Nektar Therapeutics, priority 2009, published 2012)
Read-outs that look alike come from different tables or passages of the source.

Columns and labels:
MAPKAPK3 = MAPKAPK3 (Homo sapiens, UniProt Q16644); assay: Activity against various protein tyrosine kinases: MAPKAPK3; format: biochemical; conditions: for inhibition at 0.01 µM: 10 nM
Experimental: (§1) Using techniques know those of ordinary skill in the art, compounds were tested for activity against various protein tyrosine kinases.

PKG1-beta = molecular target: T1, PKG1-beta (Homo sapiens, UniProt Q13976); assay: Activity against various protein tyrosine kinases: PKG1-beta; format: biochemical; conditions: for inhibition at 0.01 µM: 10 nM
T1 sequence (Q13976 1-686 isoform Q13976-2): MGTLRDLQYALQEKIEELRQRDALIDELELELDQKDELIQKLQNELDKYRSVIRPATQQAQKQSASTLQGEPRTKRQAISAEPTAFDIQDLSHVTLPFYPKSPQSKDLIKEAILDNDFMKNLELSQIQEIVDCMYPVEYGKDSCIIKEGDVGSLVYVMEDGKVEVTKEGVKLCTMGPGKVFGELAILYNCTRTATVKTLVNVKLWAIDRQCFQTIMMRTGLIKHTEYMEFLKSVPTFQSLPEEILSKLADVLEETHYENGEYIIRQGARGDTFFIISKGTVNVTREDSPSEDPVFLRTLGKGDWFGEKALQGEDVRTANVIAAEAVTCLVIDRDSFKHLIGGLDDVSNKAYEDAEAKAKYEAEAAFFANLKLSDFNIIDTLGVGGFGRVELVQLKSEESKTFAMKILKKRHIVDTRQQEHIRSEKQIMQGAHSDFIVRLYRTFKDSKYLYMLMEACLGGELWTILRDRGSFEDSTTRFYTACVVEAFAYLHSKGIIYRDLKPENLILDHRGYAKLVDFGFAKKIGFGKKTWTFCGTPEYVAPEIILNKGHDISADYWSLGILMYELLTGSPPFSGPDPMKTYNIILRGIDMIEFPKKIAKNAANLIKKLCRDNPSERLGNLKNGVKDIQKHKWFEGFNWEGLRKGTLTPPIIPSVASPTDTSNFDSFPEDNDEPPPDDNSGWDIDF
Experimental: as §1

PKD2 = molecular target: T2, PKD2 (Homo sapiens, UniProt Q9BZL6); assay: Activity against various protein tyrosine kinases: PKD2; format: biochemical; conditions: for inhibition at 0.01 µM: 10 nM
T2 sequence (Q9BZL6 1-878): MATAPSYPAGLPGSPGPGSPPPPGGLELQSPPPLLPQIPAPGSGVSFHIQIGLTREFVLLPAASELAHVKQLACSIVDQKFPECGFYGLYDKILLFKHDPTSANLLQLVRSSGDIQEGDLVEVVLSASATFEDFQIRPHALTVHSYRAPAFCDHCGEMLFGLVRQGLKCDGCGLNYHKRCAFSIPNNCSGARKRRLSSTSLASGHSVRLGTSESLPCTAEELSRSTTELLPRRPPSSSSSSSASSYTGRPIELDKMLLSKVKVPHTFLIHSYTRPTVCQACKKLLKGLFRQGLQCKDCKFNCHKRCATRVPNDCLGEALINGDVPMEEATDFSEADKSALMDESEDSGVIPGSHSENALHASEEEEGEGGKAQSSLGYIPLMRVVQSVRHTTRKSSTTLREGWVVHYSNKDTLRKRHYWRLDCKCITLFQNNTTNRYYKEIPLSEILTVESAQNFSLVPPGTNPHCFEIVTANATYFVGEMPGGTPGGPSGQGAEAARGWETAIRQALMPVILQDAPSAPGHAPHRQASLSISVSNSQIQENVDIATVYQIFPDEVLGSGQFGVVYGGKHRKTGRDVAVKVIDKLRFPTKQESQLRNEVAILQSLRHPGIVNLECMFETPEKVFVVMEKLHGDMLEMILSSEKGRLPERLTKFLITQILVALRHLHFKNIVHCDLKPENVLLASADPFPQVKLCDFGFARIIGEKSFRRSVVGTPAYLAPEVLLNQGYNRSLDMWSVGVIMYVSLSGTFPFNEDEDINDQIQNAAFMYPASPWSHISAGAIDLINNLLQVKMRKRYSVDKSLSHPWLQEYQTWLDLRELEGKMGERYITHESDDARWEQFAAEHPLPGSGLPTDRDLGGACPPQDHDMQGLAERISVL
Experimental: as §1

ABL [1] = molecular target: T3, ABL (Homo sapiens, UniProt P00519); assay: Activity against various protein tyrosine kinases: ABL; format: biochemical; set-up: purchased MILLIPORE 14-529; conditions: for inhibition at 0.01 µM: read-out: % Inhibition at 10 nM; for inhibition at 1 µM: read-out: % Inhibition at 1 μM
Experimental: as §1

PKA = assay: Activity against various protein tyrosine kinases: PKA; format: biochemical
Experimental: as §1

ABL [2] = molecular target: T3, ABL
RSK1 = RSK1 (Homo sapiens, UniProt Q15418); assay: Activity against various protein tyrosine kinases: RSK1; format: biochemical; conditions: for inhibition at 0.01 µM: 10 nM
Experimental: as §1

HCK = HCK (Homo sapiens, UniProt P08631); assay: Activity against various protein tyrosine kinases: HCK; format: biochemical; conditions: for inhibition at 0.01 µM: 10 nM
Experimental: as §1

ABL (T315I) = ABL (T315I) (Homo sapiens, UniProt P00519, T315I); assay: Activity against various protein tyrosine kinases: ABL (T315I); format: biochemical; conditions: for inhibition at 0.01 µM: read-out: % Inhibition at 10 nM; for inhibition at 1 µM: read-out: % Inhibition at 1 μM
Experimental: as §1

ABL (H396P) = ABL (H396P) (Homo sapiens, UniProt P00519, H396P); assay: Activity against various protein tyrosine kinases: ABL (H396P); format: biochemical; conditions: for inhibition at 0.01 µM: read-out: % Inhibition at 10 nM; for inhibition at 1 µM: read-out: % Inhibition at 1 μM
Experimental: as §1

ABL [3] = molecular target: T3, ABL; assay: Off-chip mobility-shift kinase assay (Caliper LABCHIP), ABL

MAPKAPK3, sequence (Q16644 whole entry, species assumed): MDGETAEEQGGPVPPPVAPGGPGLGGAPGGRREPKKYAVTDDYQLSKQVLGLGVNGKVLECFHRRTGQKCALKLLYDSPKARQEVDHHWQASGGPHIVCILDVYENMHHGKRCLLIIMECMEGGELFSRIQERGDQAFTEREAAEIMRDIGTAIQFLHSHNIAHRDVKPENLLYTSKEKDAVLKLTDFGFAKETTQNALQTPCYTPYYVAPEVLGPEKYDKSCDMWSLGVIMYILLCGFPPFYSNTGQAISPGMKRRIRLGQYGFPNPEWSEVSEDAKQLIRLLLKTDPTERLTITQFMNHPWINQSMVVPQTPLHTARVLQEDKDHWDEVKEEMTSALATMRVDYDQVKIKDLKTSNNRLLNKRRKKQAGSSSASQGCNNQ
RSK1, sequence (Q15418 whole entry, species assumed): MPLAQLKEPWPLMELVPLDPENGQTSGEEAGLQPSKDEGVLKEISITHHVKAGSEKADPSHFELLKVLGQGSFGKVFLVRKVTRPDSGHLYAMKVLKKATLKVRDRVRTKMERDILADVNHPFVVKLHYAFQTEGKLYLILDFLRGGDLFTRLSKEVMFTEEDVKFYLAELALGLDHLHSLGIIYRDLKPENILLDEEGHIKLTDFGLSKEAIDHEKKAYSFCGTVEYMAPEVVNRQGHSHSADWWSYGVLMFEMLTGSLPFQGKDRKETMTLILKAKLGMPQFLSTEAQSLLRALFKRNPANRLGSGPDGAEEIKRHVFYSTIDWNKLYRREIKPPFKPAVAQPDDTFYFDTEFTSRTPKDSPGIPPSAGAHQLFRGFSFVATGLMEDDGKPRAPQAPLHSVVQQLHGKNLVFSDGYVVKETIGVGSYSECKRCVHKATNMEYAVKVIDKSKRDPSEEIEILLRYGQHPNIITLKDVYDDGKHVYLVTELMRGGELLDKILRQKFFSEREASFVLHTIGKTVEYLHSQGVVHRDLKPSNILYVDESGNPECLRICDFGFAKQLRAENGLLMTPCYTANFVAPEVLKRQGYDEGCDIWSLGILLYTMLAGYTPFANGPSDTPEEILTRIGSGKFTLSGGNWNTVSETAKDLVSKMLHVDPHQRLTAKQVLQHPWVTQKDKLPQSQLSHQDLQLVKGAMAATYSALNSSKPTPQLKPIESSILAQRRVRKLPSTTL
HCK, sequence (P08631 whole entry, species assumed): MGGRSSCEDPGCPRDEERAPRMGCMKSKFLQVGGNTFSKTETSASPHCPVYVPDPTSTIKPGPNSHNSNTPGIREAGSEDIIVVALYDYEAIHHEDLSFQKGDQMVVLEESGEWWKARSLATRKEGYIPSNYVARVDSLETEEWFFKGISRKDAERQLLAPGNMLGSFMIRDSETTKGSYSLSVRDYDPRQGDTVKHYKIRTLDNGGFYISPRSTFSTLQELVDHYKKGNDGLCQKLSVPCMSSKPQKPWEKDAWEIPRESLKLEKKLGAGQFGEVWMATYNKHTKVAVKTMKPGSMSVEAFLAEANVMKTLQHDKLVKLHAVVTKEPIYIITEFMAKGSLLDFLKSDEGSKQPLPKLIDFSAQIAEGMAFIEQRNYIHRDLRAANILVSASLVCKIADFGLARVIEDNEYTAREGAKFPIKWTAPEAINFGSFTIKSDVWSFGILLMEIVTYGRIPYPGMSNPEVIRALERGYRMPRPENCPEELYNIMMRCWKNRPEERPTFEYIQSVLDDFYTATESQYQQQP

Which results are given for `COCCOCCOCCNC(=O)OCCN1CCN(c2cc(Nc3ncc(C(=O)Nc4c(C)cccc4Cl)s3)nc(C)n2)CC1` [mPEG3-NHCOO-Dasatinib]?
inhibition at 0.01 µM (MAPKAPK3): 5%; inhibition at 1 µM (MAPKAPK3): 3%; inhibition at 0.01 µM (PKG1-beta): -2%; inhibition at 1 µM (PKG1-beta): 0%; inhibition at 0.01 µM (PKD2): 12%; inhibition at 1 µM (PKD2): -5%; inhibition at 0.01 µM (ABL [1]): 99%; inhibition at 1 µM (ABL [1]): 99%; % Inhibition at 10 nM (PKA): 3%; % Inhibition at 1 μM (PKA): 0%; ABL AVG % Activity at 1.0E−09 (ABL [2]): 4%; ABL AVG % Activity at 1.0E−10 (ABL [2]): 81%; ABL AVG % Activity at 1.0E−11 (ABL [2]): 99%; ABL AVG % Activity at 3.0E−09 (ABL [2]): 0%; ABL AVG % Activity at 3.0E−10 (ABL [2]): 47%; ABL AVG % Activity at 3.0E−11 (ABL [2]): 95%; inhibition at 0.01 µM (RSK1): 2%; inhibition at 1 µM (RSK1): 0%; inhibition at 0.01 µM (HCK): 98%; inhibition at 1 µM (HCK): 98%; inhibition at 0.01 µM (ABL (T315I)): 1%; inhibition at 1 µM (ABL (T315I)): 36%; inhibition at 0.01 µM (ABL (H396P)): 99%; inhibition at 1 µM (ABL (H396P)): 99%; IC50 (ABL [3]): 0.3 nM

For `COCCOCCOCCOCCOCCOCCOCCNC(=O)OCCN1CCN(c2cc(Nc3ncc(C(=O)Nc4c(C)cccc4Cl)s3)nc(C)n2)CC1` [mPEG7-NHCOO-Dasatinib], which inhibition at 0.01 µM (MAPKAPK3) is on record?
The inhibition at 0.01 µM was 1%.

What about the inhibition at 1 µM (MAPKAPK3) of the same molecule?
The inhibition at 1 µM was 0%.

What about the inhibition at 0.01 µM (PKG1-beta) of the same molecule?
The inhibition at 0.01 µM was -3%.

And the inhibition at 1 µM (PKG1-beta)?
The inhibition at 1 µM was -3%.

And the inhibition at 0.01 µM (PKD2)?
Its inhibition at 0.01 µM is 3%.

And the inhibition at 1 µM (PKD2)?
The inhibition at 1 µM was 4%.

And the inhibition at 0.01 µM (ABL [1]; ABL, 10 nM)?
Its inhibition at 0.01 µM is 99%.

What about the inhibition at 1 µM (ABL [1]; ABL, 1 μM) of the same molecule?
Its inhibition at 1 µM is 99%.

And the “% Inhibition at 10 nM” value (PKA)?
The value was 0%.

And the “% Inhibition at 1 μM” value (PKA)?
The value was 2%.

What about the inhibition at 0.01 µM (RSK1) of the same molecule?
Its inhibition at 0.01 µM is 0%.

And the inhibition at 1 µM (RSK1)?
Its inhibition at 1 µM is 4%.

What about the inhibition at 0.01 µM (HCK) of the same molecule?
The inhibition at 0.01 µM was 98%.

And the inhibition at 1 µM (HCK)?
The inhibition at 1 µM was 99%.

What about the inhibition at 0.01 µM (ABL (T315I); ABL (T315I), 10 nM) of the same molecule?
The inhibition at 0.01 µM was 4%.

What about the inhibition at 1 µM (ABL (T315I); ABL (T315I), 1 μM) of the same molecule?
The inhibition at 1 µM was 26%.

What about the inhibition at 0.01 µM (ABL (H396P); ABL (H396P), 10 nM) of the same molecule?
The inhibition at 0.01 µM was 99%.

What about the inhibition at 1 µM (ABL (H396P); ABL (H396P), 1 μM) of the same molecule?
The inhibition at 1 µM was 99%.

What about the IC50 (ABL [3]) of the same molecule?
Its IC50 is 0.32 nM.

What about the “ABL AVG % Activity at 1.0E−09” value (ABL [3]; concentration 1.0E−09, dasatinib-corresponding compounds) of the same molecule?
The value was 4%.

And the “ABL AVG % Activity at 1.0E−10” value (ABL [3]; concentration 1.0E−10, dasatinib-corresponding compounds)?
The value was 80%.

What about the “ABL AVG % Activity at 1.0E−11” value (ABL [3]; concentration 1.0E−11, dasatinib-corresponding compounds) of the same molecule?
Its value is 98%.

And the “ABL AVG % Activity at 3.0E−09” value (ABL [3]; concentration 3.0E−09, dasatinib-corresponding compounds)?
The value was −1%.

What about the “ABL AVG % Activity at 3.0E−10” value (ABL [3]; concentration 3.0E−10, dasatinib-corresponding compounds) of the same molecule?
Its value is 48%.

And the “ABL AVG % Activity at 3.0E−11” value (ABL [3]; concentration 3.0E−11, dasatinib-corresponding compounds)?
Its value is 91%.
